Data published in patent US20100034874A1, “LIPOSOME ENCAPSULATING AMMINE-PLATINUM COMPLEX AT HIGH CONCENTRATION, AND METHOD FOR PRODUCTION OF THE LIPOSOME” (KATAYAMA CHEMICAL INDUSTRIES CO., LTD., priority 2006, published 2010).

Tests used:
[1] = tested on: Ehrlich ascites cancer cells (EAT cells) tumor; assay: Accumulation at cancerous site: platinum content in removed tumor by FAAS; type: in vivo, mouse (Balb/c); details: 1.7 mg/kg body weight, caudal vein, n=1
Method: 1×10^6 Ehrlich ascites cancer cells (EAT cells) (ATCC Number: CCl^−77TME (Ehrlich-Letter ascites)) were transplanted subcutaneously into the right femoral region of a 6-week old mouse (Balb/c, female) (n=1) and the following test was performed after 10 days. A cis-diamine dichloroplatinum (II)-containing sialyl Lewis X-modified liposome and a control of pure cis-diamine dichloroplatinum (II) were administered respectively into the caudal vein of a mouse in an amount of 150 μl, i.e. 1.7 mg/kg body weight (226 μg/ml). The resulting tumor was removed, 48 and 96 hours after administration. 0.1 g of the removed tumor tissue (0.2 to 1.0 g) was added to 1 ml of conc. nitric acid, and the mixture was agitated for 5 minutes. After static storage for 1 hour, the mixture was heated at […] in a water bath and then cooled to room temperature. 300 μl of distilled water was added to 100 μl of the nitric 5 acid-treated solution. The content of platinum therein was determined by flameless atomic absorption spectroscopy (FAAS: AA-6700 Atomic absorption flame emission spectrophotometer SIMAZU), and the platinum contents in 1 g of tumor were compared between the sample and the control. […]

[2] = tested on: Ehrlich ascites cancer cells (EAT cells); assay: Cell proliferation-inhibiting activity (MTT assay, WST-8 reagent); type: cell-based; details: 48 hours, no sample 0.480, n=3
Method: Ehrlich ascites cancer cells (EAT cells) (ATCC Number: CCl^−77TME (Ehrlich-Letter ascites)) were inoculated at 1×10^3 cell/100 μl/well (Falcon3072), and a sample was added after culture for 24 hours. The samples were prepared by diluting the cis-diamine dichloroplatinum (II)-containing unmodified liposome, the cis-diamine dichloroplatinum (II)-containing sialyl Lewis X liposome, and the cis-diamine dichloroplatinum (II)-containing anti-E-selectin antibody-modified liposome, with DMEM buffer solution (Dulbeccos's Ham Modified Eagle liquid medium, low glucose SIGMA D6046)/10% FBS (fetal calf serum SIGMA F0926)/penicillin 100 unit/ml-streptomycin 100 μg/ml (antibiotic antimycotic solution, stabilized SIGMA A5955)) to a cis-diamine dichloroplatinum (II) amount of 10 μg/ml. […] The cell count, 48 hours after addition was determined by the MTT assay of using the formazan amount as an indicator.
In addition, a solution containing only added DMEM/10% FBS was analyzed by the MTT assay as a control containing no sample.
A cell count-measuring reagent WST-8 (Kishida Chemical) was added to each well in an amount of 20 μl, and the absorbance thereof at 450 nm was determined after 2 hours. The absorbance was determined by using GE Healthcare Ultrospec-6300. […]

[3] = tested on: Ehrlich ascites cancer cells (EAT cells); assay: Tumor proliferation-inhibiting activity (tumor volume); type: in vivo, mouse (Balb/c); details: 1.5 mg/kg caudal vein on days 5, 12, 19, n=3
Method: 1×10^6 Ehrlich ascites cancer cells (EAT cells) (ATCC Number: CCl^−77TME (Ehrlich-Letter ascites)) were transplanted subcutaneously into right femoral region of 6-week old mice (Balb/c, female) (n=3), and the following tests were performed after 10 days. The cis-diamine dichloroplatinum (II)-containing sialyl Lewis X-modified liposome and the anti-E-selectin antibody-modified liposome were administered into the caudal vein of a mouse respectively in an amount of 1.5 mg/kg (200 μg/ml) on the 5th, 12th, and 19th days after transplantation. As a control, cis-diamine dichloroplatinum (II) was dissolved in physiological saline to a concentration of 200 μg/ml. The dissolved solution was administered similarly.
The size, length (A mm) and diameter (B mm), of the tumor was determined by using a digital vernier caliper (Mitsutoyo CD-S15C) on the 12th, 19th, and 29th days after tumor transplantation. The volume of the tumor (mm^3) was calculated by the following Formula: (A×B^2)×0.4.

[4] = Solubility in water; type: physicochemical
Method: For example, in the case of cisplatin, the solubility of cisplatin in water is 2 mg/ml (room temperature). The solubility of cisplatin nitrate is 20 mg/ml. Namely, cisplatin can be used as a platinum complex in an amount of not less than its solubility (room temperature). Ionic species forming a water-soluble or a poorly water-soluble salt with the platinum complex such as cisplatin are known in the art or can be selected properly, and thus, even if the platinum complex is that other than cisplatin, it is possible to select a platinum complex properly by considering its solubility, similarly to cisplatin. In this case, it is possible to form nitrates similarly, by adjusting the equivalent amount of silver nitrate added. In addition, concentrations of a bromide ion and an iodide ion are the same as the concentration of a chloride ion respectively; therefore, with any of these ions, the present invention can be carried out without problems. This is because the bromide ion or the iodide ion, which are higher in binding property than the chloride ion, can form a poorly water-soluble substance similarly, even when the present invention is carried out under the same conditions. Since it is believed that there is no difference in liposomal membrane permeability of each ion, the present invention can be carried out by taking these elements into consideration similarly.

[5] = Conversion of cis-diamine dinitratoplatinum (II) to cis-diamine dichloroplatinum (II) in 150 mM sodium chloride (UV absorption spectrum); type: physicochemical
Method: Five mg/ml of cis-diamine dinitratoplatinum (II) was dissolved in a TAPS buffer solution containing 150 mM of sodium chloride (pH: 8.4); the solution was stationarily placed at 25° C.; and the UV spectrum of the solution was determined over time (0 minute, 5 minutes, 10 minutes, 15 minutes, 30 minutes and 45 minutes). One mg of cis-diamine dichloroplatinum (II) was dissolved in 1 ml of sodium chloride-containing TAPS buffer solution, to give a control, and the UV spectrum thereof was obtained. […] There was no change in UV spectrum, when the sample was stored without movement for 45 minutes or more. […] This probably occurs because the presence of NaCl leads to the conversion of cis-diamine dinitratoplatinum (II) to the hardly water-soluble cis-diamine dichloroplatinum (II) and the subsequent precipitation of the latter.
Replacement of the nitrate ion of cis-diammine dinitratoplatinum (II) with the chloride ion in the 150 mM sodium chloride solution was studied by absorption spectroscopic method (Comparative Example 1 and FIGS. 4A and 4B).

[6] = cited from earlier work

Row | Compound | Platinum concentration (ng/g tissue) in tumor ([1]; 48 hours after administration) [ng/g tissue] | Platinum concentration (ng/g tissue) in tumor ([1]; 96 hours after administration) [ng/g tissue] | Average absorbance (450 nm) ([2]; sample final concentration 8.30 μM) | Average absorbance (450 nm) ([2]; sample final concentration 16.60 μM) | Average tumor volume ([3]; Day 12 after tumor transplantation) [mm^3] | Average tumor volume ([3]; Day 19 after tumor transplantation) [mm^3] | Average tumor volume ([3]; Day 29 after tumor transplantation) [mm^3] | solubility in water relative to cis-diamine dichloroplatinum (II) [4] | time for conversion to cis-diamine dichloroplatinum (II) ([5]; TAPS containing 150 mM NaCl, pH 8.4, 25° C., 5 mg/ml) [min] | fraction converted to cis-diamine dichloroplatinum (II) ([5]; in the presence of 150 mM sodium chloride) [%] | solubility of cisplatin nitrate [6] [mg/mL]
1 | N.N.[Cl][Pt][Cl] [Cisplatin, cis-diammine dichloroplatinum (II)] | 361 | 49 | 0.045 | 0.027 | 63 | 63 | 501 | – | – | – | –
2 | [NH2][Pt]([NH2])([O][N+](=O)[O-])[O][N+](=O)[O-] [CDDP-3, cis-diammine dinitratoplatinum (II)] | – | – | – | – | – | – | – | approximately 10 times | 45 | ≥ 99 | 20
